The values below come from ChEMBL document CHEMBL3751699, “Design, synthesis and evaluation of novel 7-aminoalkyl-substituted flavonoid derivatives with improved cholinesterase inhibitory activities” (Bioorg Med Chem, 2016).

pIC50, pKi: −log10 of the molar value. The source made the active and inactive calls. The calls are words filed in the database; no cut-off is given here.

Data set [1] concerns the target T1, Acetylcholinesterase (Electrophorus electricus, UniProt O42275). Briefly: Inhibition of electric eel AChE using ATC as substrate preincubated for 15 mins followed by substrate addition measured at 1 min intervals by Ellman method.
In another data set the target is Cholinesterase (Equus caballus, UniProt P81908). Briefly: Inhibition of equine serum BChE using BTC as substrate preincubated for 15 mins followed by substrate addition measured at 1 min intervals by Ellman method.
Data set [2] in a line: Selectivtiy index, ratio of IC50 for equine serum BChE to IC50 for electric eel AChE.
Data set [3] in a line: Cytotoxicity against rat PC12 cells at 1 uM after 48 hrs by MTT assay. It is filed as cell-based, PC-12. The conditions noted are these: read-out: INH.
Data set [4] in a line: Cytotoxicity against rat PC12 cells at 10 uM after 48 hrs by MTT assay. The data set is classed as cell-based, PC-12. The conditions noted are these: read-out: INH.
The nature of data set [5]: Cytotoxicity against human HepG2 cells at 1 uM after 48 hrs by MTT assay. The data set is classed as cell-based. The conditions noted are these: read-out: INH.
The nature of data set [6]: Cytotoxicity against human HepG2 cells at 10 uM after 48 hrs by MTT assay. It is filed as cell-based. As to conditions: read-out: INH.
Data set [7] addresses Acetylcholinesterase (Electrophorus electricus) (UniProt O42275). In words: Potency index, ratio of IC50 for rivastigmine to IC50 for test compound for inhibition of electric eel AChE by Ellman method.
Data set [8] addresses Cholinesterase (Equus caballus) (UniProt P81908). Briefly: Mixed-type inhibition of equine serum BChE using BTC as substrate assessed as hydrolysis of BTC preincubated with protein for 15 mins followed by substrate addition by Lineweaver-Burk plot analysis.
The target of data set [9] is T1, Acetylcholinesterase. In words: Mixed-type inhibition of electric eel AChE using ATC as substrate assessed as hydrolysis of ATC preincubated with protein for 15 mins followed by substrate addition by Lineweaver-Burk plot analysis.

Sequence of Cholinesterase (P81908 whole entry): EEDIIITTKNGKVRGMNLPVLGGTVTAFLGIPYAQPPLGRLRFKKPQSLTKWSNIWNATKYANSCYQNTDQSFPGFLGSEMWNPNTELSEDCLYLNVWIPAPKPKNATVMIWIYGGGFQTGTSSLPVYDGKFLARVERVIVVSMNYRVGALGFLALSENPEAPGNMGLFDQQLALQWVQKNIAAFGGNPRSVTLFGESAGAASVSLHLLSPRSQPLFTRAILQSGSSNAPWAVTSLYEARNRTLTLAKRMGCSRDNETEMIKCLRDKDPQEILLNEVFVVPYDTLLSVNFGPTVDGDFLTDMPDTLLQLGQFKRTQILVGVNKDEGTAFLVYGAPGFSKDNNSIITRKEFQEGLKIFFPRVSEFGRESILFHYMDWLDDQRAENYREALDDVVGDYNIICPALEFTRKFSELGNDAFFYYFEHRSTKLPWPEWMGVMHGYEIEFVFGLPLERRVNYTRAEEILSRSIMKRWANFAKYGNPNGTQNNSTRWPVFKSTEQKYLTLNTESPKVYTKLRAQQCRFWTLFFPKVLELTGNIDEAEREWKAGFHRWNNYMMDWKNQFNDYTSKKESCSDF
T1 sequence (O42275 whole entry): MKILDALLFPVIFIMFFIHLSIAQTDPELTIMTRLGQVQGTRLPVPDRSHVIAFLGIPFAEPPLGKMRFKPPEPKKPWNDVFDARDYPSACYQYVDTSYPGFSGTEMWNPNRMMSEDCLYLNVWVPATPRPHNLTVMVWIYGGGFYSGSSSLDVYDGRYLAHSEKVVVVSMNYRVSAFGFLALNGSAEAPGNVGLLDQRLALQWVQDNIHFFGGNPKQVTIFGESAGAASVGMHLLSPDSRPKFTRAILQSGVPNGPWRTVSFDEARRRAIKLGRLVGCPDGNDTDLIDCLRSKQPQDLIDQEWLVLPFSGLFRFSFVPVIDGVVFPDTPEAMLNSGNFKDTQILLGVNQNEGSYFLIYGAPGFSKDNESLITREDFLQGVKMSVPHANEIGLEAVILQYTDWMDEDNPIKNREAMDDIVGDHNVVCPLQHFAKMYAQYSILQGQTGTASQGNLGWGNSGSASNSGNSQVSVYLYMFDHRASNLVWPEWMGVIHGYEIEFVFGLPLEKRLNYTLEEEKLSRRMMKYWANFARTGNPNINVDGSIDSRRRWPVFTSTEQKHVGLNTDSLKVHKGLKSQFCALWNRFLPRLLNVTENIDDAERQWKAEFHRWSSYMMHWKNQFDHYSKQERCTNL
Sequence of Cholinesterase (Equus caballus) (P81908 whole entry): as the sequence (P81908 whole entry) above
Sequence of Acetylcholinesterase (Electrophorus electricus) (O42275 24-633 limits assumed): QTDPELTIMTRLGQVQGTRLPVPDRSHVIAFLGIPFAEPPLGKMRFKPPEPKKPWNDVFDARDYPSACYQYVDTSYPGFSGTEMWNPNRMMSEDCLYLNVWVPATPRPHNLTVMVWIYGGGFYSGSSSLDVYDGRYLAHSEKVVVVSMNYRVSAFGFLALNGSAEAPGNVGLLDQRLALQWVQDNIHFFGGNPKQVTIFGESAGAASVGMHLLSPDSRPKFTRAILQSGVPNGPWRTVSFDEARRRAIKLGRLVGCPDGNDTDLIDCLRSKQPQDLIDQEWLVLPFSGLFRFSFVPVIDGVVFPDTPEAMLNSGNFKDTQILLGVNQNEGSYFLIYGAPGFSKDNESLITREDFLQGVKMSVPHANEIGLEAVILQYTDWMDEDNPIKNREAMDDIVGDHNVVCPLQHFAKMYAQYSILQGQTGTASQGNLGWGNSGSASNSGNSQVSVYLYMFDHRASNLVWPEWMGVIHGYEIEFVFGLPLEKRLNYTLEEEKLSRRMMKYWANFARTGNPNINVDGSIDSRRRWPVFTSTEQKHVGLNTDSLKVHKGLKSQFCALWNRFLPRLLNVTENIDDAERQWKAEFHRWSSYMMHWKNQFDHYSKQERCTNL

`COc1cccc(-c2cc(=O)c3ccc(OCCCCCCCCN4CCCC4)cc3o2)c1`: the negative-log IC50 (pIC50) against Acetylcholinesterase [1] is 6.17; against Cholinesterase it was 5.64. Moreover, the Ratio IC50 in data set [2] was found to be 3.42. Further, the results for the cytotoxicity at 48 h, 1 µM in [3] and in data set [5] were 3.53% and 16.2%, respectively. Further, the cytotoxicity at 48 h, 10 µM is -18.2% in data set [4] and 23.7% in data set [6].

As to `COc1ccc(-c2cc(=O)c3ccc(OCCCCCCCCN4CCCC4)cc3o2)cc1OC`, the pIC50 at Acetylcholinesterase [1] is 6.08; against Cholinesterase, 5.46. Besides, the Ratio IC50 in data set [2] came to 4.13. Also, the cytotoxicity at 48 h, 1 µM in data set [3] came out at 7.29%; in data set [5], 13.5%. In addition, the figures for the cytotoxicity at 48 h, 10 µM in [4] and in data set [6] were -2.94% and 76%, respectively.

With `Nc1c2c(nc3ccccc13)CCCC2` [TACRINE], the cytotoxicity at 48 h, 1 µM in [3] turned out to be 4.62%. The cytotoxicity at 48 h, 10 µM in data set [4] is 10.2%.

For `O=c1cc(-c2ccc(Br)cc2)oc2cc(OCCCCCCCCN3CCCC3)ccc12`, the results for the pIC50 against Acetylcholinesterase [1] and against Cholinesterase were 5.67 and 4.99, respectively. For the same compound, the Ratio IC50 in data set [2] was 4.77. The cytotoxicity at 48 h, 1 µM in data set [3] is 2.5%; in data set [5], 13.3%. Also, the cytotoxicity at 48 h, 10 µM in [4] was -12.5%; in [6] it was 10.8%.

For the compound `O=c1cc(-c2ccccc2O)oc2cc(OCCCCCCCCN3CCCC3)ccc12`, the results for the negative-log IC50 (pIC50) on Acetylcholinesterase [1] and against Cholinesterase were 5.51 and 5.90, respectively. Also, the Ratio IC50 in data set [2] is 0.41. Also, the cytotoxicity at 48 h, 1 µM in data set [3] was -7.71%; in data set [5], 5.92%. In addition, the cytotoxicity at 48 h, 10 µM in [4] was 6.61%; in data set [6], 60.6%.

Take `O=c1cc(-c2ccccc2OCc2ccccc2)oc2cc(OCCCCCCCCN3CCCC3)ccc12`: the pIC50 against Acetylcholinesterase [1] is 5.70; against Cholinesterase, 5.28. Also, the Ratio IC50 in [2] was determined as 2.62. Moreover, the figures for the cytotoxicity at 48 h, 1 µM in data set [3] and in [5] were 0.47% and 19.7%, respectively. Further, the cytotoxicity at 48 h, 10 µM in [4] stood at 22.9%; in data set [6] it was 34.1%.

In the case of `Cc1ccc(-c2cc(=O)c3ccc(OCCCCCCCCN4CCCC4)cc3o2)cc1`, the negative logarithm of the IC50 (pIC50) against Acetylcholinesterase [1] is 5.90; against Cholinesterase it was 5.72. In addition, in data set [2], the Ratio IC50 came to 1.54. The cytotoxicity at 48 h, 1 µM is -0.55% in [3] and 9.17% in data set [5]. Besides, the cytotoxicity at 48 h, 10 µM was -0.03% in [4] and 77.1% in data set [6].

As to `O=c1cc(-c2ccccc2)oc2cc(OCCCCCCCCN3CCCC3)ccc12`, the negative-log IC50 (pIC50) on Acetylcholinesterase [1] is 5.96; against Cholinesterase it was 5.65. In addition, the Ratio IC50 in [2] worked out at 2.05. Also, the cytotoxicity at 48 h, 1 µM in [3] is -2.83%; in data set [5], 11.3%. Moreover, the cytotoxicity at 48 h, 10 µM in data set [4] is 1.37%; in data set [6] it was 8.97%.

As for `O=c1cc(-c2ccc(-c3ccccc3)cc2)oc2cc(OCCCCCCCCN3CCCC3)ccc12`, the negative logarithm of the IC50 (pIC50) was 5.32 against Acetylcholinesterase [1] and under 4.60 against Cholinesterase. In addition, in data set [2], the Ratio IC50 was over 5.21. In addition, the cytotoxicity at 48 h, 1 µM in data set [3] is 0.46%; in [5], 13.9%. Also, the cytotoxicity at 48 h, 10 µM was found to be 68.9% in data set [4] and 71.9% in data set [6].

For `O=c1cc(-c2cccc(O)c2)oc2cc(OCCCCCCCCN3CCCC3)ccc12`, the negative-log IC50 (pIC50) against Acetylcholinesterase [1] was 5.95; on Cholinesterase, 5.31. Further, the Ratio IC50 in data set [2] came out at 4.39. In addition, the cytotoxicity at 48 h, 1 µM in data set [3] was -4.43%; in data set [5], 19%. For the same compound, the cytotoxicity at 48 h, 10 µM in [4] was -6.56%; in data set [6] it was 43.9%.

Take `COc1ccccc1-c1cc(=O)c2ccc(OCCCCCCCCN3CCCC3)cc2o1`: the negative-log IC50 (pIC50) on Acetylcholinesterase [1] was 6.19; against Cholinesterase, 6.12. Also, the results for the Ratio IC50 in data set [2] and in data set [7] were 1.19 and 10, respectively. Besides, the cytotoxicity at 48 h, 1 µM in [3] stood at 3.08%; in [5], 5.9%. For the same compound, the cytotoxicity at 48 h, 10 µM in data set [4] was 3.4%; in data set [6], 24.3%.

On to `O=c1cc(-c2ccc(OCc3ccccc3)cc2)oc2cc(OCCCCCCCCN3CCCC3)ccc12`, for which the pIC50 was 5.72 at Acetylcholinesterase [1] and under 4.60 against Cholinesterase. Further, the Ratio IC50 in [2] was over 13.2. Moreover, the cytotoxicity at 48 h, 1 µM in [3] is -2.83%; in [5] it was 10.4%. In addition, the cytotoxicity at 48 h, 10 µM is 1.37% in data set [4] and 54.3% in data set [6].

`O=c1cc(-c2cccc3ccccc23)oc2cc(OCCCCCCCCN3CCCC3)ccc12`: the inhibition result in data set [8] is “Active”. On Acetylcholinesterase [9], the pKi is 6.69. Also, the negative-log IC50 (pIC50) against Acetylcholinesterase [1] was 6.14; against Cholinesterase, 6.38. Besides, in data set [2], the Ratio IC50 was found to be 0.58. Besides, the figures for the cytotoxicity at 48 h, 1 µM in data set [3] and in [5] were 3% and 4.42%, respectively. Besides, the cytotoxicity at 48 h, 10 µM in data set [4] came out at 9.01%; in data set [6], 18.9%.

As for `O=c1cc(-c2ccc(O)cc2)oc2cc(OCCCCCCCCN3CCCC3)ccc12`, the pIC50 against Acetylcholinesterase [1] is 5.92; at Cholinesterase, 5.34. Further, in data set [2], the Ratio IC50 was found to be 3.79. Also, the values for the cytotoxicity at 48 h, 1 µM in data set [3] and in data set [5] were 0.7% and 18.5%, respectively. The cytotoxicity at 48 h, 10 µM in data set [4] worked out at 7.42%; in data set [6] it was 21.4%.

`O=c1cc(-c2ccc(Cl)cc2)oc2cc(OCCCCCCCCN3CCCC3)ccc12`: the negative-log IC50 (pIC50) was 5.95 against Acetylcholinesterase [1] and 5.46 against Cholinesterase. Also, the Ratio IC50 in data set [2] is 3.09. Moreover, the cytotoxicity at 48 h, 1 µM in data set [3] was found to be 6.27%; in data set [5] it was 6.39%. The cytotoxicity at 48 h, 10 µM in data set [4] was -1.7%; in [6] it was 25.7%.

Regarding `O=c1cc(-c2ccc(N3CCCC3)cc2)oc2cc(OCCCCCCCCN3CCCC3)ccc12`, the negative-log IC50 (pIC50) against Acetylcholinesterase [1] is 5.86; at Cholinesterase, 5.39. Further, in data set [2], the Ratio IC50 is 2.97. The cytotoxicity at 48 h, 1 µM in [3] turned out to be 0.29%; in data set [5] it was 5.74%. Moreover, the cytotoxicity at 48 h, 10 µM in data set [4] is -9.56%; in data set [6], 19%.

Consider `COc1cc(-c2cc(=O)c3ccc(OCCCCCCCCN4CCCC4)cc3o2)cc(OC)c1OC`, for which the pIC50 against Acetylcholinesterase [1] is 5.97; on Cholinesterase, 5.66. Further, the Ratio IC50 in data set [2] amounted to 2.04. Besides, the values for the cytotoxicity at 48 h, 1 µM in [3] and in [5] were -4.47% and 16.3%, respectively. Further, the cytotoxicity at 48 h, 10 µM was -13.8% in [4] and 41.4% in data set [6].

`O=c1cc(-c2cccc(OCc3ccccc3)c2)oc2cc(OCCCCCCCCN3CCCC3)ccc12`: the figures for the negative-log IC50 (pIC50) on Acetylcholinesterase [1] and against Cholinesterase were 5.80 and under 4.60, respectively. Moreover, in data set [2], the Ratio IC50 is over 15.8. Besides, the cytotoxicity at 48 h, 1 µM in data set [3] was found to be 0.79%; in data set [5], 6.63%. In addition, the cytotoxicity at 48 h, 10 µM in [4] is -2.53%; in data set [6], 30.6%.

Turning to `COc1ccc(-c2cc(=O)c3ccc(OCCCCCCCCN4CCCC4)cc3o2)cc1`, the negative-log IC50 (pIC50) at Acetylcholinesterase [1] was 5.77; at Cholinesterase, 5.27. Also, the Ratio IC50 in [2] is 3.19. Besides, the figures for the cytotoxicity at 48 h, 1 µM in data set [3] and in data set [5] were -0.15% and 6.69%, respectively. Besides, the cytotoxicity at 48 h, 10 µM in [4] was -6.72%; in [6], 21.5%.
